Assay results taken from patent US11685716B2, “Plant growth inhibiting agent, and plant growth inhibiting method using same” (NATIONAL UNIVERSITY CORPORATION KUMAMOTO UNIVERSITY, priority 2017, dated 2023).

Assays:
morning glory = test: Seed treatment, plant growth inhibition index (Evaluation 11); type: in vivo; design: key: 0: No effect; 1: Growth of the root part was inhibited 50% or less compared with non-treated area.; 2: Growth of the root part was inhibited 50% or more compared with non-treated area.; 3: Growth of the root part was substantially inhibited.; 4: Germination was inhibited
Description: (§1) The compound of the present invention (2 mg) was dissolved in a 1.5% Tween dimethylformamide solution (100 μL) to use as a test chemical solution.
(§2) Eight mL of sterilized water was poured to a cherry cup (100Φ×45 mm) lined with a filter paper, subsequently 81.1 μL of the sterilized water was removed, and 81.1 μL of the test chemical solution was added such that a final concentration of the compound was 800 μM.
(§3) Further, cherry cups were similarly prepared such that a final concentration of the compound was 200 μM.
(§4) Seeds (Japanese millet: 3 grains, velvet leaf: 6 grains, Ragweed: 8 grains, morning glory: 2 grains) were planted on the filter paper in the cherry cups, followed by growing the plants in a thermostatic chamber at 25° C. under a light-dark cycle in which a light period is 12 hours and a dark period is 12 hours for 6 days.
(§5) In addition, with regards to the compound (9a) and the compound (9b), the plants were tested for 7 days.
(§6) Plant growth inhibition effects of the compounds were evaluated by conversion to indexes according to the following investigation criteria.

velvet leaf [1] = test: as above; type: in vivo; design: key: 0: No effect; 1: Growth of the root part was inhibited 50% or less compared with non-treated area.; 2: Growth of the root part was inhibited 50% or more compared with non-treated area.; 3: Growth of the root part was substantially inhibited.; 4: Germination was inhibited
Description: as §1, §2, §3, §4, §5, §6

Japanese millet = test: as above; type: in vivo; design: key: 0: No effect; 1: Growth of the root part was inhibited 50% or less compared with non-treated area.; 2: Growth of the root part was inhibited 50% or more compared with non-treated area.; 3: Growth of the root part was substantially inhibited.; 4: Germination was inhibited
Description: as §1, §2, §3, §4, §5, §6

Ragweed = test: as above; type: in vivo; design: key: 0: No effect; 1: Growth of the root part was inhibited 50% or less compared with non-treated area.; 2: Growth of the root part was inhibited 50% or more compared with non-treated area.; 3: Growth of the root part was substantially inhibited.; 4: Germination was inhibited
Description: as §1, §2, §3, §4, §5, §6

thale cress = test: Plant growth inhibition index, thale cress on agar medium in test tube (Evaluation 8, 9); type: in vivo, thale cress (Col-0, wild-type strain); design: key: 0: No effect; 1: Growth of the root part was inhibited 50% or less compared with non-treated area.; 2: Growth of the root part was inhibited 50% or more compared with non-treated area.; 3: Growth of the root part was substantially inhibited.; 4: Germination was inhibited; details: Concentration 200 μM, 8 days (Evaluation 9, Table 2)
Description: 0.44% (w/v) Mixed salts for Murashige and Skoog medium (SIGMA), 1% (w/v) sucrose, and 0.05% (w/v) MES were mixed, and pH of the solution was adjusted to pH 5.7 with potassium hydroxide. 1.5% (w/v) Agar was added to the mixture, which was sterilized at 120° C. in an autoclave for 20 minutes. The test compound and dimethylformamide containing 1.5% of polyoxyethylenesorbitan monolaurate for a control experiment, were added at this stage and blended. In addition, the compound was used by adjusting an addition concentration to 200 μM. Four ml each of the medium was dispensed in sterile glass test tube ([…] RIKA GLASS CO., LTD.) to prepare agar medium.
As a plant material, Col-0, which is a wild-type strain of thale cress, was used.
Seeds, after their surfaces were sterilized, were planted on the agar medium, and the growth of the plant was carried out in a plant incubator (CFH-405) under the conditions of an illuminance of 3 at 23° C. with constant light. The plants on the agar medium were grown for 8 days in the chamber.
The plant growth inhibition effect of the compounds was evaluated by conversion to indexes according to the following investigation criteria.

Japanese bristlegrass = test: Spray treatment to stems and leaves, killing weed index (Evaluation 10); type: in vivo; details: 2000 g active ingredient per hectare, sprayed liquid amount 250 L/ha, two weeks later
Description: (§7) POA allyl phenyl ether (4.1 parts by weight), POE-POP glycol (1 part by weight), POE sorbitan laurate (0.8 parts by weight), glycerin (2.6 parts by weight), dimethylformamide (65.9 parts by weight), N-methylpyrrolidone (5.1 parts by weight), cyclohexanone (15.4 parts by weight), and aromatic hydrocarbon (5.1 parts by weight) were mixed and dissolved to prepare an emulsion. The compounds of the present invention (4 mg) were dissolved in this emulsion (100 μL) to prepare a test emulsion. In addition, POA means “polyoxyalkylene”, POE means “polyoxyethylene”, and POP means “polyoxypropylene.”
(§8) Four hundred μL of the above test emulsion was diluted with 7600 μL of water to use as a test spray liquid.
(§9) Further, 400 μL of the above test emulsion was diluted with 1600 μL of a 1% Tween20 aqueous solution to use as a spray liquid for a small amount spray test.
(§10) For a comparative spray liquid, 53 μL of a 30% pendimethalin emulsion (Gogosan emulsion: manufactured by BASF Japan) as a control pesticides was diluted with 7947 μL of water. Further, for a comparative spray liquid for a small amount spray test, 53 μL of the 30% pendimethalin emulsion was diluted with 1947 μL of water.
(§11) A 150 cm^2 pot was filled with a soil, seeds of each purple amaranth, Japanese bristlegrass, southern crabgrass, and velvet leaf were sown on the surface layer, lightly covered with a soil and grown in a greenhouse. When each plant grew to a plant height of 2 to 9 cm, the test spray liquid was sprayed to the stem and leaf parts with a small spraying machine such that an active ingredient amount was 2000 g per hectare and a sprayed liquid amount was 1000 L per hectare.
(§12) Similarly, the test spray liquid for a small amount spray test was sprayed to the stem and leaf parts with a small spraying machine such that an active ingredient amount was 2000 g per hectare and a sprayed liquid amount was 250 L per hectare.
(§13) Two weeks later, the above-ground grass weight in non-treated areas and the above-ground grass weight in treated areas, by the weed, were measured to calculate a killing weed rate by the following calculating formula.
(§14) (a) Calculating Formula of Weeding Rate Killing weed rate (%)=(above-ground grass weight in non-treated area−above-ground grass weight in treated area)/(above-ground grass weight in non-treated area)×100 (b) Killing Weed Indexes
(§15) The obtained killing weed rates were evaluated, such that a killing weed index was “10” when a killing weed rate is 100%, as “9” when a killing weed rate is 99% to 90%, “8” when a killing weed rate is 89% to 80%, “7” when a killing weed rate is 79% to 70%, “6” when a killing weed rate is 69% to 60%, “5” when a killing weed rate is 59% to 50%, “4” when a killing weed rate is 49% to 40%, “3” when a killing weed rate is 39% to 30%, “2” when a killing weed rate is 29% to 20%, “1” when a killing weed rate is 19% to 10%, and “0” when a killing weed rate is 9% to 0%.

purple amaranth = test: as above; type: in vivo; details: 2000 g active ingredient per hectare, two weeks later
Description: as §7, §8, §9, §10, §11, §12, §13, §14, §15

velvet leaf [2] = test: as above; type: in vivo; details: 2000 g active ingredient per hectare, two weeks later
Description: as §7, §8, §9, §10, §11, §12, §13, §14, §15

southern crabgrass = test: as above; type: in vivo; details: 2000 g active ingredient per hectare, two weeks later
Description: as §7, §8, §9, §10, §11, §12, §13, §14, §15

[3] = 200 μM, 6 days (9a, 9b: 7 days)
[4] = sprayed liquid amount 1000 L/ha

| Compound | plant growth inhibition index, Morning glory (morning glory; [3]) | plant growth inhibition index, Morning glory (morning glory; 800 μM, 6 days) | plant growth inhibition index, Velvet leaf (velvet leaf [1]; [3]) | plant growth inhibition index, Velvet leaf (velvet leaf [1]; 800 μM, 6 days) | plant growth inhibition index, Japanese millet (Japanese millet; [3]) | plant growth inhibition index, Japanese millet (Japanese millet; 800 μM, 6 days) | plant growth inhibition index, Ragweed (Ragweed; [3]) | plant growth inhibition index, Ragweed (Ragweed; 800 μM, 6 days) | Index (thale cress) | killing weed index, Japanese bristlegrass (Japanese bristlegrass) | killing weed index, Purple amaranth (purple amaranth; sprayed liquid amount 250 L/ha) | killing weed index, Purple amaranth (purple amaranth; [4]) | killing weed index, Velvet leaf (velvet leaf [2]; sprayed liquid amount 250 L/ha) | killing weed index, Velvet leaf (velvet leaf [2]; [4]) | killing weed index, Southern crabgrass (southern crabgrass; sprayed liquid amount 250 L/ha) | killing weed index, Southern crabgrass (southern crabgrass; [4]) |
| --- | --- | --- | --- | --- | --- | --- | --- | --- | --- | --- | --- | --- | --- | --- | --- | --- |
| CCCCCOn1cc(-c2cccnc2)cc1C(=O)O [Compound 9i] | 0 | 10 | 0 | 6 (Growth of the stem and leave parts was inhibited 60% or more compared with non-treated area.) | 3 (Growth of the stem and leave parts was inhibited 30% or more compared with non-treated area, or growth of the only root part was inhibited 60% or more compared with non-treated area.) | 4 (Growth of the stem and leave parts was inhibited 40% or more compared with non-treated area, or growth of the only root part was inhibited 80% or more compared with non-treated area.) | 0 | 4 (Growth of the stem and leave parts was inhibited 40% or more compared with non-treated area, or growth of the only root part was inhibited 80% or more compared with non-treated area.) | 2 (Growth of the root part was inhibited 50% or more compared with non-treated area.) | – | – | – | – | – | – | – |
| CCCCCCCCCOn1cccc1C(=O)N(C)C [Compound 9g] | 0 | 0 | 3 (Growth of the stem and leave parts was inhibited 30% or more compared with non-treated area, or growth of the only root part was inhibited 60% or more compared with non-treated area.) | 3 (Growth of the stem and leave parts was inhibited 30% or more compared with non-treated area, or growth of the only root part was inhibited 60% or more compared with non-treated area.) | 3 (Growth of the stem and leave parts was inhibited 30% or more compared with non-treated area, or growth of the only root part was inhibited 60% or more compared with non-treated area.) | 4 (Growth of the stem and leave parts was inhibited 40% or more compared with non-treated area, or growth of the only root part was inhibited 80% or more compared with non-treated area.) | 5 (Growth of the stem and leave parts was inhibited 50% or more compared with non-treated area, or growth of the only root part was inhibited 100% or more compared with non-treated area.) | 7 (Growth of the stem and leave parts was inhibited 70% or more compared with non-treated area.) | 3 | – | – | – | – | – | – | – |
| CCCCCOn1cc(-c2ccsc2)cc1C(=O)O [Compound 9j] | 3 (Growth of the stem and leave parts was inhibited 30% or more compared with non-treated area, or growth of the only root part was inhibited 60% or more compared with non-treated area.) | 5 (Growth of the stem and leave parts was inhibited 50% or more compared with non-treated area, or growth of the only root part was inhibited 100% or more compared with non-treated area.) | 0 | 5 (Growth of the stem and leave parts was inhibited 50% or more compared with non-treated area, or growth of the only root part was inhibited 100% or more compared with non-treated area.) | 4 (Growth of the stem and leave parts was inhibited 40% or more compared with non-treated area, or growth of the only root part was inhibited 80% or more compared with non-treated area.) | 3 (Growth of the stem and leave parts was inhibited 30% or more compared with non-treated area, or growth of the only root part was inhibited 60% or more compared with non-treated area.) | 8 (Growth of the stem and leave parts was inhibited 80% or more compared with non-treated area.) | 9 (Growth of the stem and leave parts was inhibited 90% or more compared with non-treated area.) | 2 (Growth of the root part was inhibited 50% or more compared with non-treated area.) | – | – | – | – | – | – | – |
| CCC(CC)Nc1c([N+](=O)[O-])cc(C)c(C)c1[N+](=O)[O-] [pendimethalin, reference compound] | – | – | – | – | – | – | – | – | – | 6 (“6” when a killing weed rate is 69% to 60%) | 6 (“6” when a killing weed rate is 69% to 60%) | 0 (“0” when a killing weed rate is 9% to 0%) | 5 (“5” when a killing weed rate is 59% to 50%) | 4 (“4” when a killing weed rate is 49% to 40%) | 6 (“6” when a killing weed rate is 69% to 60%) | 6 (“6” when a killing weed rate is 69% to 60%) |
